These results are taken from patent publication US20210371899A1, “METHOD AND KIT FOR […], AND PLASMID, BACULOVIRUS, CELL AND METHOD OF PREPARING THE SAME FOR PESTICIDE DETECTIONS” (priority 2018, published 2021).

For experiment [1], the target named is T1, AChE-6MC (truncated AChE Y408F fused with TM and CTD of baculovirus GP64, displayed on Hi5 cells) (Drosophila melanogaster, UniProt P07140, R99G/Y408F).
T1 construct: honeybee mellitin signal peptide (HM) (N); expressed in transfected cells; host or cells: Trichoplusia ni High Five (Hi5) cells infected with recombinant baculovirus vAChE-6MC, lyophilised in the plate
The experiment can be described thus: Inhibition of cell-surface displayed AChE-6MC (Ellman's method, ATCh/DTNB, 412 nm). The format is biochemical. The protocol: (§1) Hi5 cells were infected with AChE-FL-bac (FL), AChE-6MC-bac (6MC) or WT-bac (WT) respectively, for 3 days. After the removal of media, the cells were subjected to a 5-hour lyophilization in the 96-well plates. Two OP and two CB insecticide compounds were serial-diluted and added to the infected cell samples, as well as a 100 mU/mL AChE (ST, Abcam) in 96-well plates and the commercialized AChE (Sichen) in cuvette for a further comparison. AChE activities were analyzed for all these sample in order to determine the sensitivities of these AChE to different insecticides. DMSO with different concentrations in DPBS were added to determine the background effects. Pesticides tested are: (a) paraoxon ethyl, (b) malaoxon, (c) carbofuran (d) carbaryl.
(§2) AChE activity was determined by Ellman's method. For each 96-well, 50 μl of 3 mM ATCh and 50 μl of 3 mM Ellman's reagent DTNB solution was added. After 10 minutes of incubation at room temperature, average absorbance at 412 nm was determined. […] The diluted solutions were then added individually into 96-well microplates with Hi5 cells infected by the seven recombinant viruses (vDmAChE, vHsAChE, vRnAChE, vAmAChE, vSfAChE, DamAChE, and vBdAChE). After incubation for 10 minutes, substrate ATCh and DTNB solution were added to the reaction mixture. After 10 minutes of incubation at room temperature, residual activity was determined with a microplate reader at 412 nm.
(§3) The acetylcholinesterase stock solution was diluted into 50 units/mL in assay buffer at ratio 1:50 to generate 1000 mU/mL acetylcholinesterase standard solution. Then, the 1000 mU/mL acetylcholinesterase standard solution was further diluted into 300, 100, 30, 10, 3, 1 and 0 mU/mL for determining the average absorbance of each standard. The reading of each standard was plotted as a function of the amount of acetylcholinesterase to establish a standard curve, and the corresponding amount of AChE in each test samples was calculated by the derived linear equation. […]
(§4) The remaining activity of AChE is evaluated by the following equation: […]
(§5) In which, ΔA0 indicates the change of absorbance of the positive control, and ΔAS indicates the change of absorbance of the applied pesticide incubated solution.
(§6) As for a comparison, the test results using the most common AChE insecticide diagnostic kit in Taiwan sold by Sichen Inc. were also included, and the IC50 for all of the test samples were also calculated (Table 1). For Sichen, since they acquire the AChE from fly, also they have to use cuvette (1 mL) for measurement, thus high quantity of AChE should be used. […] 96-well plate was applied, which requires only 100 μL solution for detection, and easily to handle, and can be read by bare eye for the detection of residue pesticides.

For experiment [2], the target named is T2, AChE-FL (full-length AChE Y408F displayed on Hi5 cells) (Drosophila melanogaster, UniProt P07140, R99G/Y408F).
T2 construct: honeybee mellitin signal peptide (HM) (N); expressed in transfected cells; host or cells: Trichoplusia ni High Five (Hi5) cells infected with recombinant baculovirus vAChE-FL, lyophilised in the plate
The experiment can be described thus: Inhibition of cell-surface displayed AChE-FL (Ellman's method, ATCh/DTNB, 412 nm). In kind it is biochemical. The protocol:
as §1, §2, §3, §4, §5, §6

The target of experiment [3] is AChE (Abcam) (UniProt O42275). The experiment can be described thus: Inhibition of purified standard AChE (Abcam). The format is biochemical.
Description: AChE activity was determined by Ellman's method. For each 96-well, 50 μl of 3 mM ATCh and 50 μl of 3 mM Ellman's reagent DTNB solution was added. After 10 minutes of incubation at room temperature, average absorbance at 412 nm was determined. […] The diluted solutions were then added individually into 96-well microplates with Hi5 cells infected by the seven recombinant viruses (vDmAChE, vHsAChE, vRnAChE, vAmAChE, vSfAChE, DamAChE, and vBdAChE). […] After 10 minutes of incubation at room temperature, residual activity was determined with a microplate reader at 412 nm.
For experiment [4], the target named is commercialized AChE (Sichen) (Musca domestica, UniProt Q7YWJ9). The experiment can be described thus: Inhibition of commercial AChE kit (Sichen), cuvette. The format is biochemical, fly. As for the experimental part: as §1
Acetylcholinesterase Assay Kit (standard AChE) was purchased from Abcam. Rapid Bioassay of Pesticides Residues Reagent Kit (commercial AChE) was purchased from Sichen.
The acetylcholinesterase stock solution was diluted into 50 units/mL in assay buffer at ratio 1:50 to generate 1000 mU/mL acetylcholinesterase standard solution. Then, the 1000 mU/mL acetylcholinesterase standard solution was further diluted into 300, 100, 30, 10, 3, 1 and 0 mU/mL for determining the average absorbance of each standard. The reading of each standard was plotted as a function of the amount of acetylcholinesterase to establish a standard curve, and the corresponding amount of AChE in each test samples was calculated by the derived linear equation. To calculate the inhibition of AChEs activity (%), vCont-Bac infected cells (without expression of AChE on the surface) served as the negative control, whereas Abcam purified protein, Sichen commercial protein, vAChE-FL and vAChE-6MC infected cells without pesticide incubation served as the positive control. The activity of the positive control was considered 100%.
The remaining activity of AChE is evaluated by the following equation:
Inhibition of AChEs activity (%)(ΔA0−ΔAS)/ΔA0)×100
as §5
As for a comparison, the test results using the most common AChE insecticide diagnostic kit in Taiwan sold by Sichen Inc. were also included, and the IC50 for all of the test samples were also calculated (Table 1). For Sichen, since they acquire the AChE from fly, also they have to use cuvette (1 mL) for measurement, thus high quantity of AChE should be used. […] In the present application, however, there are no need for fly rearing and no need for AChE purification. 96-well plate was applied, which requires only 100 μL solution for detection, and easily to handle, and can be read by bare eye for the detection of residue pesticides.

Setting [5] is: read-out: IC50 of OP and CB towards AChEs, Abcam; 100 mU/mL purified AChE standard, 96-well plate.
[6] abbreviates: Hi5 cells infected with vAChE-6MC, 3 days, lyophilized 5 h, 96-well plate, read-out: IC50 of OP and CB towards AChEs, AChE-6MC.
Setting [7] is: Hi5 cells infected with vAChE-FL, 3 days, lyophilized 5 h, 96-well plate, read-out: IC50 of OP and CB towards AChEs, AChE-FL.
The mark [8] stands for this setting: commercialized AChE kit, cuvette (1 mL), read-out: IC50 of OP and CB towards AChEs, Sichen.

Where two headings read alike, the source gives them in different places.

Consider `CNC(=O)Oc1cccc2ccccc12` [Carbaryl, carbaryl], for which the concentration for half-maximal inhibition (IC50) was 650 nM in experiment [1], 6800 nM in experiment [2], 6500 nM in experiment [3] (setting [5]) and 5900 nM in experiment [4].
On to `CNC(=O)Oc1cccc2c1OC(C)(C)C2` [Carbofuran, carbofuran], for which the IC50 in experiment [1] (setting [6]) turned out to be 4500 nM; in experiment [2] (setting [7]), 48000 nM; in experiment [3] (100 mU/mL purified AChE standard, 96-well plate; read-out: IC50 of OP and CB towards AChEs, Abcam), 540 nM; in experiment [4] (setting [8]), 2800 nM.
For the compound `CCOC(=O)CC(SP(=O)(OC)OC)C(=O)OCC` (stereo not drawn) [Malaoxon, malaoxon], the half-maximal inhibitory concentration (IC50) is 62 nM in experiment [1], 560 nM in experiment [2], 820 nM in experiment [3] (setting [5]) and 950 nM in experiment [4].
`CCOP(=O)(OCC)Oc1ccc([N+](=O)[O-])cc1` [Paraoxon ethyl, paraoxon ethyl]: the concentration for half-maximal inhibition (IC50) amounted to 55 nM in experiment [1] (setting [6]), 490 nM in experiment [2] (setting [7]) and 2300 nM in experiment [4] (setting [8]).
